Data on 7 molecules can be found in US20250099420A1, “SMALL MOLECULE MODULATORS OF GPR139 COMPLEX” (University of Florida Research Foundation, Incorporated, priority 2022, published 2025).

Where two headings read alike, the source gives them in different places.

One data set has as its target T1, GPR139 (Homo sapiens, UniProt Q6DWJ6).
T1 sequence (Q6DWJ6 1-353): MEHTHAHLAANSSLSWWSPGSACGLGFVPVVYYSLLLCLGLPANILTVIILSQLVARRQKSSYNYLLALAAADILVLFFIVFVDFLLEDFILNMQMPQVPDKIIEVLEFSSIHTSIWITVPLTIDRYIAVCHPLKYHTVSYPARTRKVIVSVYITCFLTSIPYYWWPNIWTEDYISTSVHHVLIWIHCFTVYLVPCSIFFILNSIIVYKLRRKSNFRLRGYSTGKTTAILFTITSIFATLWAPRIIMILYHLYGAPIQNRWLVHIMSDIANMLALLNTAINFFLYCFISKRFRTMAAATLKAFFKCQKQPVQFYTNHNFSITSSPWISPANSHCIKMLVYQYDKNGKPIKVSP
The data set is described as follows: GPR139 Agonist titration / agonist counterscreen assay (calcium detection, HEK-GPR139 cells). In kind it is cell-based. Also noted: expressed in transfected cells; host or cells: HEK Aequorin cells, Maxcyte transient transfection. As to conditions: GPR139 Agonist Activity; for Averaged Max % Response (±St. Dev.): activity relative to known control; for EC50: read-out: EC50. The protocol:
GPR activity was assessed using a calcium detection assay. […] Negative control samples were treated with DMSO. […] Intracellular calcium was measured using Calcium 5.
(In general: The purpose of a counterscreen is to sort out artefacts and off-target activity.)

In another data set the test system is parental HEK cells. Kind of data set: HEK parental Agonist Counterscreen Assay (non-transfected cells). As to conditions: for Averaged Max % Response (±St. Dev.): activity relative to known control. In kind it is cell-based. An excerpt: The high control for the agonist counterscreen was Forskolin not acetylcholine.
Where [1] appears, read: values printed in E-notation without unit.
Setting [2] is: HEK Agonist Activity section of Table 4 (parental HEK counterscreen).
[3] abbreviates: Homo sapiens, HEK293, HEK Agonist Activity section of Table 4 (parental HEK counterscreen).

The term EC50 denotes the concentration at which the effect is half-maximal. Regarding `CN(C(=O)CN1C(=O)NC(C)(c2ccc3ccccc3c2)C1=O)C1CCCCC1` (stereo not drawn) [SR-01000048373], the entries for the “Averaged Max % Response (±St. Dev.)” value on GPR139 and in the data set with parental HEK cells (HEK Agonist Activity section) were 118.34 ± 15.06% and 9.79 ± 7.30%, respectively. Moreover, the entries for the “Lipophilic Efficiency (logD)” value at GPR139 (based on logD) and in the data set with parental HEK cells (HEK Agonist Activity section) were 3.96 and 1.79, respectively. For the same molecule, the “Lipophilic Efficiency (logP)” value on GPR139 (based on logP) was 3.96; in the data set with parental HEK cells (HEK Agonist Activity section), 1.79. For the same molecule, on GPR139 (fitted dose-response curve), the “Hill Slope” value was 0.66. For the same molecule, the “Efficiency Ligand” value at GPR139 (ligand efficiency) is recorded as 0.34. The figures for the EC50 on GPR139 (setting [1]) and in the data set with parental HEK cells (setting [2]) were 96.7 nM and more than 14300 nM, respectively.
Take `CCC1CCCCN1C(=O)CN1C(=O)NC(C)(c2ccc3ccccc3c2)C1=O` (stereo not drawn) [SR-01000048417]: the “Averaged Max % Response (±St. Dev.)” value is reported as 111.02 ± 13.88% at GPR139 and −4.34 ± 6.43% with parental HEK cells (HEK Agonist Activity). Besides, the “Lipophilic Efficiency (logD)” value worked out at 4.73 on GPR139 (based on logD) and 1.80 with parental HEK cells (HEK Agonist Activity). Besides, the “Lipophilic Efficiency (logP)” value on GPR139 (based on logP) stood at 4.73; in the data set on parental HEK cells (HEK Agonist Activity) it was 1.80. Further, the “Hill Slope” value at GPR139 (fitted dose-response curve) is given as 0.52. At GPR139 (ligand efficiency), the “Efficiency Ligand” value worked out at 0.38. Moreover, the EC50 at GPR139 (setting [1]) is 16.9 nM; with parental HEK cells (HEK Agonist Activity, parental non-transfected HEK cells), more than 14300 nM.
Take `C=C(C)CN(CC)C(=O)CN1C(=O)NC(C)(c2ccc3ccccc3c2)C1=O` (stereo not drawn) [SR-01000048841]: the entries for the “Averaged Max % Response (±St. Dev.)” value at GPR139 and in the data set with parental HEK cells (HEK Agonist Activity) were 125.61 ± 14.18% and 15.49 ± 13.53%, respectively. Also, the “Lipophilic Efficiency (logD)” value on GPR139 (based on logD) was 5.59; in the data set on parental HEK cells (HEK Agonist Activity), 2.25. The “Lipophilic Efficiency (logP)” value turned out to be 5.59 at GPR139 (based on logP) and 2.25 with parental HEK cells (HEK Agonist Activity). The “Hill Slope” value on GPR139 (fitted dose-response curve) is 0.27. The “Efficiency Ligand” value at GPR139 (ligand efficiency) was 0.41. The EC50 on GPR139 (setting [1]) is 6.7 nM; in the data set with parental HEK cells (Homo sapiens, HEK293, HEK Agonist Activity, parental non-transfected HEK cells) it was more than 14800 nM.
Turning to `CCCC1(CCC)NC(=O)N(CC(=O)NCc2ccc(Cl)cc2)C1=O` [SR-01000050884], at GPR139, the “Efficiency Ligand” value is listed as 0.36, the “Hill Slope” value amounted to 0.73, the “Lipophilic Efficiency (logD)” value amounted to 3.46 and the “Lipophilic Efficiency (logP)” value stood at 3.46. In addition, the “Averaged Max % Response (±St. Dev.)” value at GPR139 was found to be 89.45 ± 3.28%. In addition, the EC50 at GPR139 (HEK-GPR139 cells) is 408 nM. In the data set with parental HEK cells (HEK Agonist Activity section), the “Lipophilic Efficiency (logD)” value was 1.88, the “Lipophilic Efficiency (logP)” value is on record as 1.88 and the “Averaged Max % Response (±St. Dev.)” value is reported as 5.22 ± 1.83%. For the same molecule, the EC50 in the data set with parental HEK cells (setting [3]) is more than 15400 nM.
For `CC(C)C(C)(C#N)NC(=O)CSc1nnc(Cc2cccc3ccccc23)n1N` (stereo not drawn) [SR-01000052065], the “Averaged Max % Response (±St. Dev.)” value came to 98.20 ± 7.98% on GPR139 and 8.92 ± 9.62% in the data set on parental HEK cells (HEK Agonist Activity section). For the same molecule, the “Lipophilic Efficiency (logD)” value at GPR139 (based on logD) turned out to be 4.63; with parental HEK cells (HEK Agonist Activity section), 2.71. Moreover, the “Lipophilic Efficiency (logP)” value on GPR139 (based on logP) was determined as 4.54; in the data set with parental HEK cells (HEK Agonist Activity section), 2.62. Besides, the “Hill Slope” value at GPR139 (fitted dose-response curve) is 0.53. Also, at GPR139 (ligand efficiency), the “Efficiency Ligand” value came to 0.33. Further, the EC50 on GPR139 (setting [1]) was 182 nM; in the data set on parental HEK cells (setting [2]), more than 15200 nM.
Turning to `COc1ccc(Cl)cc1C(=O)NNC(=O)CCc1ccc([N+](=O)[O-])cc1` [SR-01000054340], on GPR139, the “Efficiency Ligand” value was determined as 0.33, the “Hill Slope” value stood at 0.74, the “Lipophilic Efficiency (logD)” value is 3.45 and the “Lipophilic Efficiency (logP)” value amounted to 3.43. For the same molecule, at GPR139, the “Averaged Max % Response (±St. Dev.)” value amounted to 96.13 ± 10.69%. Besides, in the data set on parental HEK cells (HEK Agonist Activity section), the “Lipophilic Efficiency (logD)” value is 2.25, the “Lipophilic Efficiency (logP)” value is listed as 2.23 and the “Averaged Max % Response (±St. Dev.)” value worked out at 20.66 ± 8.49%. Further, in the data set with parental HEK cells (setting [3]), the EC50 was more than 14200 nM.
With `Cc1ccc2c(CC(=O)NNC(=O)CC34CC5CC(CC(C5)C3)C4)coc2c1` [SR-01000054849], the “Averaged Max % Response (±St. Dev.)” value at GPR139 came to 93.14 ± 10.62%; with parental HEK cells (HEK Agonist Activity section), 1.19 ± 3.75%. Besides, the “Lipophilic Efficiency (logD)” value on GPR139 (based on logD) amounted to 3.67; in the data set with parental HEK cells (HEK Agonist Activity section) it was 1.41. Also, the “Lipophilic Efficiency (logP)” value on GPR139 (based on logP) is on record as 3.67; in the data set with parental HEK cells (HEK Agonist Activity section), 1.41. Also, the “Hill Slope” value at GPR139 (fitted dose-response curve) is 0.47. For the same molecule, the “Efficiency Ligand” value on GPR139 (ligand efficiency) was determined as 0.35. Further, the EC50 at GPR139 (setting [1]) was 81.6 nM; in the data set with parental HEK cells (setting [2]), more than 14800 nM.
